The text below walks through data of the METLIN SMRT retention time set (Domingo-Almenara et al. 2019).

A short description of the series: gradient 5% acetonitrile 3 min, to 50% in 2 min, to 85% in 15 min, held 3 min, 100 µL/min. The note with it: column: Zorbax Extend-C18 2.1 x 50 mm; eluents: water / acetonitrile, 0.1% formic acid. The method in brief:
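Retention time was recorded from adduct peaks, which were picked computationally and each inspected manually. Pure standards ran in mixtures of ~100 molecules on HPLC coupled to a quadrupole time-of-flight mass spectrometer, in positive and negative ionization mode, through a Zorbax Extend-C18 column (2.1 × 50 mm, 1.8 μm) at 100 μL/min. Eluents were water and acetonitrile, each with 0.1% formic acid.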
`Cc1noc(-c2ccc(OC3CN(C(=O)NC4CCCCC4)C3)cc2)n1` returned an RP-LC retention time of 846 s.

`Cc1ccc(NC(=O)Cn2nc(N3CCSCC3)c3ccccc3c2=O)cc1Cl` had an RP-LC retention time of 970 s.

Regarding `Cc1ccc(-c2ccc(N3CCCC(C(=O)NCCCN4CCOCC4)C3)nn2)cc1` (centres undefined), the RP-LC retention time stood at 571 s.

`Cn1cc(-c2nc(C(=O)NCc3cccs3)cs2)c2cccnc21` yielded an RP-LC retention time of 851 s.

In turn, `CC(=O)c1cccc(NC(=O)COc2cc(C)nc(N3CCCC3)n2)c1` yielded an RP-LC retention time of 616 s.

Regarding `O=S(=O)(c1ccccc1)N1CCCCC1c1nc(-c2ccccc2)n[nH]1` (centres undefined), the RP-LC retention time was 851 s.

Compound `O=c1c2cc(-c3ccc(F)cc3)nn2ccn1Cc1nc(-c2cccc(F)c2)no1` gave an RP-LC retention time of 1060 s.

The compound `Cc1nnc2n1-c1sccc1C(c1ccccc1)=NC2` gave an RP-LC retention time of 712 s.

Take `CC(=O)N1CCCC(c2nc(CNC(=O)C(C)C)cs2)C1` (centres undefined): the RP-LC retention time came out at 609 s.

With `C[C@](O)(COc1ccc(C#N)cc1)C(=O)Nc1ccc(C#N)c(C(F)(F)F)c1`, the RP-LC retention time amounted to 972 s.

Take `O=C(CN1CCCCC1c1nc(-c2cccs2)no1)NCc1cccs1` (centres undefined): the RP-LC retention time worked out at 996 s.

As to `COCCN(Cc1cccs1)C(=O)c1nnn(-c2ccccc2)c1-c1ccccn1`, the RP-LC retention time stood at 824 s.

`O=C(NCCc1cccs1)c1ccc2nc(Cc3ccccc3)oc2c1` displayed an RP-LC retention time of 949 s.

In turn, `Cc1cccc(C(=O)N2CC(C)C(=O)Nc3ccccc32)c1` (centres undefined) yielded an RP-LC retention time of 688 s.

In the case of `O=C(c1cccnc1)N1CCN(C(=O)c2nnn3c2COC(c2ccccc2)C3)CC1` (centres undefined), the RP-LC retention time is 640 s.

As to `CC(C)CNC(=O)CC1=C2CCCCC2NC1=O` (centres undefined), the RP-LC retention time was 644 s.

`CCN1C(=O)c2cccnc2Sc2cc(CNC(=O)c3ccc(OC)c(OC)c3)ccc21` displayed an RP-LC retention time of 711 s.

For the compound `Cn1cc(CC(=O)NCc2cc(F)cc(F)c2)c2cccnc21`, the RP-LC retention time amounted to 702 s.

The compound `O=C(Cc1ccc(Cl)cc1)NCC1CCN(C2CCCC2)CC1` returned an RP-LC retention time of 566 s.

On to `COc1ccc(OCc2noc(CNC(=O)NCc3ccc(F)cc3)n2)cc1`, for which the RP-LC retention time turned out to be 770 s.

`Cc1nn(CC(=O)NCCN(C)C2CCCCC2)c(=O)c2c(C)n(-c3ccccc3)nc12` gave an RP-LC retention time of 653 s.

As to `CN1C(=O)c2cccn2CC1CNC(=O)NCc1ccc(F)cc1` (centres undefined), the RP-LC retention time is 658 s.

On to `O=c1n(Cc2cccc(F)c2)nc2ccc(S(=O)(=O)N3CCOCC3)cn12`, for which the RP-LC retention time came out at 800 s.

In the case of `O=C(Nc1cccc(F)c1)C1CCCN(S(=O)(=O)c2c[nH]c(C(=O)N3CCCC3)c2)C1` (centres undefined), the RP-LC retention time was 808 s.

Compound `CCOC(=O)c1ccc(NC(=O)c2ccc(-n3nncc3C)cc2)cc1` displayed an RP-LC retention time of 757 s.

As to `CCN1C(=O)COc2ccc(-c3csc(NC(=O)CC(C)C)n3)cc21`, the RP-LC retention time worked out at 928 s.

`CC1CCCN(S(=O)(=O)c2cc(C(=O)N3CCCc4ccccc43)n(C)c2)C1` (centres undefined) showed an RP-LC retention time of 1060 s.

`O=C(CSc1nc(N2CCCCC2)nc2ccccc12)Nc1ccc(Cl)cc1` gave an RP-LC retention time of 804 s.

Take `COc1ccc(-c2cc3n(n2)CCCN(C(C)=O)C3)cc1`: the RP-LC retention time was 656 s.

In turn, `CNC(=O)c1sc2nc(-c3cccc(OC)c3)c(NCCOC)n2c1C` registered an RP-LC retention time of 696 s.

For `COc1cc(OC)cc(C(=O)NCC(O)Cc2ccccc2)c1` (centres undefined), the RP-LC retention time was 706 s.

On to `COc1cccc(Sc2ccc(N3CCC(C(=O)N4CCN(c5ccccn5)CC4)CC3)nn2)c1`, for which the RP-LC retention time came to 616 s.

For `CCc1cc(=O)n(CC(=O)N(CC)Cc2ccccc2)c(N)n1`, the RP-LC retention time stood at 639 s.

`CC(=O)Nc1ccc(Br)cc1`: the RP-LC retention time was 680 s.

`Cc1cccc(-c2nsc(SCC(=O)N3CCc4ccccc43)n2)c1`: the RP-LC retention time was 1150 s.

Regarding `Cc1nc(-c2csc(S(=O)(=O)N3CCCC(C(=O)NC4CCCCCCC4)C3)c2)no1` (centres undefined), the RP-LC retention time amounted to 1060 s.

`CC(C)NC(=O)Cn1c2ccccc2c2ncn(Cc3nc(-c4ccccc4)no3)c(=O)c21` registered an RP-LC retention time of 848 s.

The compound `O=C(Nc1ccc2c(c1)C(=O)N1CCCCC1CCO2)c1ccco1` (centres undefined) registered an RP-LC retention time of 692 s.

The compound `O=c1c2ccccc2n(Cc2nc(-c3ccccc3)no2)c(=O)n1CC1CCCO1` (centres undefined) showed an RP-LC retention time of 978 s.

`CCCNC(=O)C1CCN(c2ccc(SCC(=O)NCc3ccc(F)cc3)nn2)CC1`: the RP-LC retention time was 667 s.

`Cc1cc(C)c(S(=O)(=O)N2CCCC2c2nc(-c3ccccc3C)no2)c(C)c1` (centres undefined) showed an RP-LC retention time of 1330 s.

Take `COc1cccc(OC)c1CN1CCC2(CC1)CC(O)CCO2` (centres undefined): the RP-LC retention time stood at 597 s.

With `CCc1cc(C(=O)Nc2cc(OC)cc(OC)c2)nc2cc(-c3ccco3)nn12`, the RP-LC retention time turned out to be 795 s.

`COC(=O)c1c(NCC(C)O)c2cccc(Cl)c2[nH]c1=O` (centres undefined) yielded an RP-LC retention time of 610 s.

Consider `CCN(C(=O)Cc1c(C(=O)O)c(C)cn1CC)c1cccc(Cl)c1`, for which the RP-LC retention time is 839 s.

The compound `Cc1cnc(C2CC2)n1CCNS(=O)(=O)Cc1ccccc1` registered an RP-LC retention time of 634 s.

For the compound `CCc1ccc(S(=O)(=O)N(C)CC2CCOCC2)cc1`, the RP-LC retention time stood at 911 s.

Take `CC1CCN(C(=O)CN2C(=O)C3CCCCN3c3ccc(S(=O)(=O)N(C)C)cc32)CC1` (centres undefined): the RP-LC retention time came out at 910 s.

Take `Cc1cc(Cl)ccc1NC(=O)Cn1cccc1-c1nnc(C2CCC2)o1`: the RP-LC retention time turned out to be 1040 s.

As for `CCc1nccn1Cc1nc(-c2ccc3c(c2)OCO3)no1`, the RP-LC retention time was determined as 621 s.

As for `Cc1oc(C2CCN(C(=O)NCc3cccc(F)c3)CC2)nc1C(=O)N1CCOCC1`, the RP-LC retention time came to 903 s.

The compound `Cc1cccc(-c2nc(Cn3nnc(C(=O)NCc4ccc(C(C)C)cc4)c3C)c(C)o2)c1` came in with an RP-LC retention time of 1310 s.

As for `CS(=O)(=O)N1CCCc2cc(C(=O)NCc3ccco3)ccc21`, the RP-LC retention time was determined as 742 s.

On to `CC1=C(c2ccc(Cl)cc2)S(=O)(=O)N=C1N1CCCN(C(=O)c2ccsc2)CC1`, for which the RP-LC retention time was determined as 843 s.

As to `CCOC(=O)c1c(C)[nH]c(C)c1S(=O)(=O)N1CCC(C(=O)Nc2ccc(C)cn2)CC1`, the RP-LC retention time is 646 s.

`O=S(=O)(Nc1cccn2cnnc12)c1ccc2c(c1)CCC2` came in with an RP-LC retention time of 736 s.

For the compound `CCCc1ccc(-c2cc(C(=O)N3CCN(c4ncccn4)CC3)c3ccccc3n2)cc1`, the RP-LC retention time was 1180 s.

Compound `CCNC(=O)c1sc2nc(-c3ccc(OC)cc3)c(NCCOC)n2c1C` gave an RP-LC retention time of 704 s.

`O=C(NCC1CN(c2ccc3c(c2)OCO3)C(=O)O1)c1cccs1` (centres undefined) had an RP-LC retention time of 678 s.

Take `C=CCN1C(=O)COc2ccc(-c3csc(NC(=O)c4ccc(F)cc4)n3)cc21`: the RP-LC retention time turned out to be 1010 s.

With `CCc1noc(NC(C)=O)c1-c1ccc(OC)c(S(=O)(=O)NC2CCCC2)c1`, the RP-LC retention time was found to be 801 s.

Take `N#Cc1cccc(NC(=O)c2cc(C3CC3)n3nccc3n2)c1`: the RP-LC retention time was 942 s.

The compound `O=C(NCc1cccc(C(F)(F)F)c1)C1CCCN(c2cnc3nccnc3c2)C1` (centres undefined) yielded an RP-LC retention time of 754 s.

Turning to `CC(C)N1C(=O)C(C)(C(=O)NCc2ccc3c(c2)OCO3)Oc2cccnc21` (centres undefined), the RP-LC retention time turned out to be 894 s.

Turning to `Cc1ccc(Sc2nccnc2N2CCCC(C(=O)NCc3ccc(F)cc3)C2)cc1` (centres undefined), the RP-LC retention time stood at 1100 s.

In turn, `CCS(=O)(=O)NCC1CCN(C(=O)COc2ccccc2)CC1` gave an RP-LC retention time of 659 s.

Consider `Cc1cc(C(=O)Nc2cccc3ccccc23)n(-c2ccccc2)n1`, for which the RP-LC retention time was determined as 908 s.

`COc1ccc(NC(=O)C2CCN(S(C)(=O)=O)c3cc(C)ccc3O2)cc1Cl` (centres undefined) came in with an RP-LC retention time of 957 s.

`Cc1nnc(NC(=O)c2nc(-c3cnccn3)no2)s1` came in with an RP-LC retention time of 598 s.

Turning to `COc1ccc(NC(=O)c2cn(-c3cc(N(C)C)ncn3)cn2)c(OC)c1`, the RP-LC retention time amounted to 842 s.

Consider `Cc1noc(C)c1-c1ccc(S(=O)(=O)Nc2ccc(F)cc2)cc1`, for which the RP-LC retention time was determined as 904 s.

The compound `CCNc1nc(NCC)n2c(SCC(=O)c3cccc(Br)c3)nnc2n1` gave an RP-LC retention time of 680 s.

Compound `CCCN1CCN(S(=O)(=O)c2cc(-c3cc(C(F)(F)F)[nH]n3)sc2C)CC1` yielded an RP-LC retention time of 707 s.

With `Cc1cc(C)cc(NC(=O)CN2CCN(Cc3ccccc3)C(=O)C2=O)c1`, the RP-LC retention time amounted to 782 s.
